{
  "source": "PubChem BioAssay (NCI)",
  "assay_in_all_cases": "inhibition of tumour cell growth, NCI panel, 48 h",
  "key": {"SW-620 colon": {"tested_on": "SW-620 colon"}, "NCI-H522 lung": {"tested_on": "NCI-H522 lung"}, "MDA-MB-435": {"tested_on": "MDA-MB-435"}, "MCF7 breast": {"tested_on": "MCF7 breast"}, "HL-60(TB) leukemia": {"tested_on": "HL-60(TB) leukemia"}, "SK-MEL-2 melanoma": {"tested_on": "SK-MEL-2 melanoma"}, "COLO 205 colon": {"tested_on": "COLO 205 colon"}, "KM12 colon": {"tested_on": "KM12 colon"}, "A498 renal": {"tested_on": "A498 renal"}, "NCI/ADR-RES ovarian": {"tested_on": "NCI/ADR-RES ovarian"}},
  "note": "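96-well plates; 48 h exposure; 5 concentrations. Endpoints by linear interpolation between flanking doses. Not reached: highest tested concentration assigned. Abbreviation: GI50, concentration required for 50% inhibition of growth. At the TGI there is no net growth.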",
  "data": [
    {"smiles": "CC(C)c1ccc(C(=O)Nc2sc3c(c2C#N)CCC(=O)C3)cc1", "values": [
      {"measurement": "GI50", "setting": "SW-620 colon", "value": 0.266, "unit": "µM"},
      {"measurement": "TGI", "setting": "SW-620 colon", "value": 1.67, "unit": "µM"},
      {"measurement": "GI50", "setting": "NCI-H522 lung", "value": 0.248, "unit": "µM"},
      {"measurement": "TGI", "setting": "NCI-H522 lung", "value": 2.16, "unit": "µM"},
      {"measurement": "GI50", "setting": "MDA-MB-435", "value": 1.02, "unit": "µM"},
      {"measurement": "TGI", "setting": "MDA-MB-435", "value": 5.72, "unit": "µM"},
      {"measurement": "GI50", "setting": "MCF7 breast", "value": 0.337, "unit": "µM"},
      {"measurement": "TGI", "setting": "MCF7 breast", "value": "> 45", "unit": "µM"},
      {"measurement": "GI50", "setting": "HL-60(TB) leukemia", "value": 0.413, "unit": "µM"},
      {"measurement": "GI50", "setting": "SK-MEL-2 melanoma", "value": 1.6, "unit": "µM"},
      {"measurement": "TGI", "setting": "SK-MEL-2 melanoma", "value": 5.97, "unit": "µM"},
      {"measurement": "GI50", "setting": "COLO 205 colon", "value": 0.49, "unit": "µM"},
      {"measurement": "TGI", "setting": "COLO 205 colon", "value": 2.87, "unit": "µM"},
      {"measurement": "GI50", "setting": "KM12 colon", "value": 0.413, "unit": "µM"},
      {"measurement": "TGI", "setting": "KM12 colon", "value": 7.83, "unit": "µM"},
      {"measurement": "GI50", "setting": "A498 renal", "value": 1.92, "unit": "µM"},
      {"measurement": "TGI", "setting": "A498 renal", "value": 6.29, "unit": "µM"},
      {"measurement": "GI50", "setting": "NCI/ADR-RES ovarian", "value": 0.464, "unit": "µM"},
      {"measurement": "TGI", "setting": "NCI/ADR-RES ovarian", "value": 11.2, "unit": "µM"}
    ]},
    {"smiles": "C[C@]1(CO)[C@H]2CC[C@@]34C=C[C@@](CO)(CC[C@H]3[C@]2(C)CC[C@H]1O)C4", "values": [
      {"measurement": "TGI", "setting": "SW-620 colon", "value": "> 100", "unit": "µM"},
      {"measurement": "TGI", "setting": "NCI-H522 lung", "value": "> 100", "unit": "µM"},
      {"measurement": "TGI", "setting": "MDA-MB-435", "value": "> 100", "unit": "µM"},
      {"measurement": "TGI", "setting": "MCF7 breast", "value": "> 100", "unit": "µM"},
      {"measurement": "TGI", "setting": "HL-60(TB) leukemia", "value": "> 100", "unit": "µM"},
      {"measurement": "TGI", "setting": "SK-MEL-2 melanoma", "value": "> 100", "unit": "µM"},
      {"measurement": "TGI", "setting": "COLO 205 colon", "value": "> 100", "unit": "µM"},
      {"measurement": "TGI", "setting": "KM12 colon", "value": "> 100", "unit": "µM"},
      {"measurement": "TGI", "setting": "A498 renal", "value": "> 100", "unit": "µM"},
      {"measurement": "TGI", "setting": "NCI/ADR-RES ovarian", "value": "> 100", "unit": "µM"}
    ]},
    {"smiles": "O=C(Nc1ccc(Cl)cc1)c1ccc(NC2=C(Cl)C(=O)N(Cc3ccccc3)C2=O)cc1", "values": [
      {"measurement": "GI50", "setting": "SW-620 colon", "value": 6.36, "unit": "µM"},
      {"measurement": "TGI", "setting": "SW-620 colon", "value": "> 100", "unit": "µM"},
      {"measurement": "GI50", "setting": "NCI-H522 lung", "value": 8.55, "unit": "µM"},
      {"measurement": "TGI", "setting": "NCI-H522 lung", "value": 30.7, "unit": "µM"},
      {"measurement": "GI50", "setting": "MDA-MB-435", "value": 12.7, "unit": "µM"},
      {"measurement": "TGI", "setting": "MDA-MB-435", "value": 33.1, "unit": "µM"},
      {"measurement": "GI50", "setting": "MCF7 breast", "value": 15.3, "unit": "µM"},
      {"measurement": "TGI", "setting": "MCF7 breast", "value": 33.8, "unit": "µM"},
      {"measurement": "GI50", "setting": "HL-60(TB) leukemia", "value": 6.23, "unit": "µM"},
      {"measurement": "TGI", "setting": "HL-60(TB) leukemia", "value": "> 100", "unit": "µM"},
      {"measurement": "GI50", "setting": "SK-MEL-2 melanoma", "value": 14.2, "unit": "µM"},
      {"measurement": "TGI", "setting": "SK-MEL-2 melanoma", "value": 40.4, "unit": "µM"},
      {"measurement": "GI50", "setting": "COLO 205 colon", "value": 30.3, "unit": "µM"},
      {"measurement": "TGI", "setting": "COLO 205 colon", "value": "> 100", "unit": "µM"},
      {"measurement": "GI50", "setting": "KM12 colon", "value": 21.1, "unit": "µM"},
      {"measurement": "TGI", "setting": "KM12 colon", "value": 56.7, "unit": "µM"},
      {"measurement": "GI50", "setting": "A498 renal", "value": 17.7, "unit": "µM"},
      {"measurement": "TGI", "setting": "A498 renal", "value": 47.8, "unit": "µM"},
      {"measurement": "GI50", "setting": "NCI/ADR-RES ovarian", "value": 4.14, "unit": "µM"},
      {"measurement": "TGI", "setting": "NCI/ADR-RES ovarian", "value": 14.8, "unit": "µM"}
    ]},
    {"smiles": "CC(C)c1ccc(/C(C(=O)O)=C(\\O)C(=O)O)cc1", "values": [
      {"measurement": "TGI", "setting": "SW-620 colon", "value": "> 100", "unit": "µM"},
      {"measurement": "TGI", "setting": "NCI-H522 lung", "value": "> 100", "unit": "µM"},
      {"measurement": "TGI", "setting": "MDA-MB-435", "value": "> 100", "unit": "µM"},
      {"measurement": "TGI", "setting": "MCF7 breast", "value": "> 100", "unit": "µM"},
      {"measurement": "TGI", "setting": "HL-60(TB) leukemia", "value": "> 100", "unit": "µM"},
      {"measurement": "TGI", "setting": "SK-MEL-2 melanoma", "value": "> 100", "unit": "µM"},
      {"measurement": "TGI", "setting": "COLO 205 colon", "value": "> 100", "unit": "µM"},
      {"measurement": "TGI", "setting": "KM12 colon", "value": "> 100", "unit": "µM"},
      {"measurement": "TGI", "setting": "A498 renal", "value": "> 100", "unit": "µM"},
      {"measurement": "TGI", "setting": "NCI/ADR-RES ovarian", "value": "> 100", "unit": "µM"}
    ]},
    {"smiles": "CCOc1cc2c(NCCCN(CCO)CCO)ncnc2c(OCC)c1OCC", "values": [
      {"measurement": "TGI", "setting": "SW-620 colon", "value": "> 100", "unit": "µM"},
      {"measurement": "TGI", "setting": "NCI-H522 lung", "value": "> 100", "unit": "µM"},
      {"measurement": "TGI", "setting": "MDA-MB-435", "value": "> 100", "unit": "µM"},
      {"measurement": "TGI", "setting": "MCF7 breast", "value": "> 100", "unit": "µM"},
      {"measurement": "TGI", "setting": "HL-60(TB) leukemia", "value": "> 100", "unit": "µM"},
      {"measurement": "TGI", "setting": "SK-MEL-2 melanoma", "value": "> 100", "unit": "µM"},
      {"measurement": "TGI", "setting": "COLO 205 colon", "value": "> 100", "unit": "µM"},
      {"measurement": "TGI", "setting": "KM12 colon", "value": "> 100", "unit": "µM"},
      {"measurement": "TGI", "setting": "A498 renal", "value": "> 100", "unit": "µM"},
      {"measurement": "TGI", "setting": "NCI/ADR-RES ovarian", "value": "> 100", "unit": "µM"}
    ]},
    {"smiles": "Cn1c(=O)c(Oc2ccccc2F)cc2cnc(NC3CCOCC3)nc21", "values": [
      {"measurement": "GI50", "setting": "SW-620 colon", "value": "> 25", "unit": "µM"},
      {"measurement": "TGI", "setting": "SW-620 colon", "value": "> 25", "unit": "µM"},
      {"measurement": "GI50", "setting": "NCI-H522 lung", "value": "> 25", "unit": "µM"},
      {"measurement": "TGI", "setting": "NCI-H522 lung", "value": "> 25", "unit": "µM"},
      {"measurement": "GI50", "setting": "MDA-MB-435", "value": "> 25", "unit": "µM"},
      {"measurement": "TGI", "setting": "MDA-MB-435", "value": "> 25", "unit": "µM"},
      {"measurement": "GI50", "setting": "MCF7 breast", "value": "> 25", "unit": "µM"},
      {"measurement": "TGI", "setting": "MCF7 breast", "value": "> 25", "unit": "µM"},
      {"measurement": "GI50", "setting": "HL-60(TB) leukemia", "value": "> 25", "unit": "µM"},
      {"measurement": "TGI", "setting": "HL-60(TB) leukemia", "value": "> 25", "unit": "µM"},
      {"measurement": "GI50", "setting": "SK-MEL-2 melanoma", "value": "> 25", "unit": "µM"},
      {"measurement": "TGI", "setting": "SK-MEL-2 melanoma", "value": "> 25", "unit": "µM"},
      {"measurement": "GI50", "setting": "COLO 205 colon", "value": "> 25", "unit": "µM"},
      {"measurement": "TGI", "setting": "COLO 205 colon", "value": "> 25", "unit": "µM"},
      {"measurement": "GI50", "setting": "KM12 colon", "value": "> 25", "unit": "µM"},
      {"measurement": "TGI", "setting": "KM12 colon", "value": "> 25", "unit": "µM"},
      {"measurement": "GI50", "setting": "A498 renal", "value": "> 14.7", "unit": "µM"},
      {"measurement": "TGI", "setting": "A498 renal", "value": "> 25", "unit": "µM"},
      {"measurement": "GI50", "setting": "NCI/ADR-RES ovarian", "value": "> 25", "unit": "µM"},
      {"measurement": "TGI", "setting": "NCI/ADR-RES ovarian", "value": "> 25", "unit": "µM"}
    ]}
  ]
}
